The values that follow come from patent publication US11033545B2, “Negative allosteric modulators of MGLUR5 for use in the treatment of mature brain damages” (Sinntaxis AB, priority 2016, dated 2021).

Common to all, as to type: in vivo
Test [1] deals with male C57/BL6 mice. The experiment in a line: Infarct size after photothrombotic stroke in the mouse. Particulars: 5 mg/kg i.p. for 5 days, FIG. 2B. How it is done: Tissue collection. The animals were deeply anesthetized (isoflurane) and perfusion-fixed with 4% paraformaldehyde (PFA) solution. Brains were collected and immersed in 4% PFA solution for 4 h, then transferred into a 25% sucrose phosphate buffer solution (0.1 M NaH2PO4, 0.1 M Na2HPO4) and stored at 4° C. Brains were then cut in 30 μm slices using a microtome and one slice was kept each 1 mm for infarct size measurement. The others were kept for immunohistochemistry and immunofluorescence. All the slices were stored in anti-freeze solution (30% ethylene glycol, 30% glycerol, 0.01 M NaH2PO4, 0.03 M Na2HPO4) at −20° C.
Immunohistochemistry. Free-floating brain slices were rinsed three times in PBS (phosphate buffer saline) and quenched in 3% H2O2 and 10% MetOH for 15 minutes. […]
Infarct measurements. […] Twelve slices 1 mm apart, were scanned, and the non-lesioned area of the infarcted hemisphere and the non-lesioned contralateral hemisphere were outlined and measured using the ImageJ software (National Institute of Health, USA). Infarct volume (mm^3) was determined by subtracting the area of the non-lesioned ipsilateral hemisphere from that of the intact contralateral hemisphere, and calculated by volumetric integration for each animal. […]
The animals were perfused and immunostained as in Example 1, and the infarct size was assessed as in Example 1.

For test [2], the system named is male Sprague Dawley rats. The experiment in a line: Infarct size after photothrombotic stroke in the rat. Particulars: 5 mg/kg i.p., FIG. 1B. How it is done: Experimental stroke. The animals were anesthetized by isoflurane (approximately 2% in 02 under spontaneous ventilation) and placed into stereotaxic frame. Temperature was monitored during surgery using a rectal temperature probe and animals were kept at 37.0-37.5±0.2° C. by means of a heating pad with feedback control. A sagittal skin incision was made and subcutaneous connective tissue was removed and the skull was dried. Thereafter, the photosensitizer dye Rose Bengal (0.5 mL at 10 mg/mL) was infused in the tail vein. […] The functional deficit was assessed 2 h after the onset of the stroke using the limb placement test and only the animals having a score 0, for both fore- and hindlimb contralateral to the brain damaged hemisphere were used for the study. […]
Infarct measurements. […] Twelve slices 1 mm apart, were scanned, and the non-lesioned area of the infarcted hemisphere and the non-lesioned contralateral hemisphere were outlined and measured using the ImageJ software (National Institute of Health, USA). Infarct volume (mm^3) was determined by subtracting the area of the non-lesioned ipsilateral hemisphere from that of the intact contralateral hemisphere, and calculated by volumetric integration for each animal.

The subject of test [3] is male Sprague Dawley rats. The experiment in a line: Paw placement test after photothrombotic stroke in the rat. Particulars: rat. Here is the method: Animals. All experiments were carried out with the approval of the Malmö-Lund animal review board and according to the ARRIVE guidelines. Animals were housed under reverse light conditions, with the testing performed during the dark period when the rats are active. The experiments were carried out on male Sprague Dawley rats (11 weeks of age, Charles River, Scanbur A/S Karlslunde, Denmark). The studies were subjected to randomization and carried out in a blinded fashion to the investigators who performed the surgeries and behavioral assessment.
Administration of compound. The compound was injected as a bolus dose of 1 ml/kg into the lower quadrant of the abdomen.
Experimental stroke. The animals were anesthetized by isoflurane (approximately 2% in 02 under spontaneous ventilation) and placed into stereotaxic frame. Temperature was monitored during surgery using a rectal temperature probe and animals were kept at 37.0-37.5±0.2° C. by means of a heating pad with feedback control. A sagittal skin incision was made and subcutaneous connective tissue was removed and the skull was dried. Thereafter, the photosensitizer dye Rose Bengal (0.5 mL at 10 mg/mL) was infused in the tail vein. Two minutes after injection, the skull was illuminated with cold light (Schott, KL 1500 LCD) on an area of 8 to 4.5 mm for 15 min (from +4 to −4 mm antero-posterior and from 0.5 to 5 mm on the left from bregma). Thereafter the tail and the scalp incisions were sutured and the rats transferred to their home cage. The functional deficit was assessed 2 h after the onset of the stroke using the limb placement test and only the animals having a score 0, for both fore- and hindlimb contralateral to the brain damaged hemisphere were used for the study.
Test of neurological function. The paw placement test. The cortical damage inflicted by the phothrombosis, causes a deficit due to neuronal loss in the sensori-motor area and depression of functions in neuronal networks in the vicinity of the lesion. […] This test provides information on the tactile/proprioceptive response to limb stimulation. Animals were placed with all 4 paws on the table top, and the paws to be tested along the edge. The rat was moved over the edge so the paws to be tested loose contact with the table surface. The ability of the animals to place the limb back onto the table surface when the rat was moved towards the edge was evaluated. Importantly, the head was held at 45° angle, so that visual and whisker/snout stimulation was prevented. A prompt placement of the limb onto the table was scored as 1. Incomplete placing of the limb was scored as 0.5, and complete extension of the limb and paw was scored as 0. In order to obtain groups with a similar functional deficit prior to treatment of the animals with drugs or vehicle, selective sorting was performed on day 2 after experimental stroke, a time point of recovery when the infarct development had subsided.
Administration of the compounds. The compounds were administrated orally (p.o.) by catheters placed in the stomach. The amount of solutions were 0.2 ml/rat and 0.1 ml/mice.
Induction of stroke was as made as in Example 1 for rats and as in Example 2 in mice. Assessment of neurological function was performed as in Example 1 for rats and as in Example 2 for mice. The animals were perfused and immunostained as in Example 1, and the infarct size was assessed as in Example 1.
Induction of stroke, assessment of neurological function, perfusion of animals, immunostaining and assessment of infarct size were made as in Example 1.

[4] abbreviates: time course of recovery of function, treatment starting 2 days after stroke.

As for `Cc1nc(C#Cc2cccnc2)cs1` [SIN007, 3-[(2methyl-1,3-thiazol-4-yl)ethynyl]pyridine], in test [1], the infarct size was found to be 8.9±0.9 mm^3 and the “mean infarct size compared to vehicle” value is “the mean infarct size was the same in the two groups”. In addition, the “infarct size compared to vehicle” value in test [2] was “no difference in infarct size”. In test [2] (animals of FIG. 1A), this molecule had an infarct size of 19.5±4.6 mm^3. Also, the “paw placement score (recovery of paw placement function)” value in test [3] (5 mg/kg i.p. daily starting 2 days after stroke, assessed at 14 days after stroke, vs vehicle, p<0.001, FIG. 1A) is on record as “almost complete recovery of paw placement function”. Moreover, the “persistence of recovery of function after termination of the treatment” value in test [3] (after 5 days treatment, FIG. 1D) is “at least 7 days”. For the same molecule, in test [3] (setting [4]), the “days of treatment for a maximal treatment effect” value worked out at 14 days and the “days of treatment required for a treatment effect” value was “At least 4 days”.
